Laboratory results: patent US11840686B2, “Modulation of prekallikrein (PKK) expression” (Ionis Pharmaceuticals, Inc., priority 2013, dated 2023)
Strand notation (5' to 3'): a small letter for the sugar, then the base; units joined by * are phosphorothioate-linked, units joined directly phosphodiester-linked; [ ] holds rarer units or linkages, { } end groups; capitals alone tell only the bases. e = 2'-O-(2-methoxyethyl) (MOE); [5mC] = 5-methylcytosine; d = 2'-deoxy (DNA)

Tested on: human PKK mRNA
Assay: Antisense inhibition of human PKK mRNA in HepaRG cells, 3,000 nM (Example 1)
Type: cell-based
Conditions: relative to untreated control cells
Method: Antisense oligonucleotides were designed targeting a PKK nucleic acid and were tested for their effects on PKK mRNA in vitro. HepaRG™ cells, which are terminally differentiated hepatic cells derived from a human hepatic progenitor cell line and retain many characteristics of primary human hepatocytes (Lubberstedt M. et al., J. Pharmacol. Toxicol. Methods 2011 63: 59-68), were used in the screen.
The chimeric antisense oligonucleotides in the tables below were designed as 5-10-5 MOE gapmers. The gapmers are 20 nucleosides in length, wherein the central gap segment comprises of ten 2′-deoxynucleosides and is flanked by wing segments on the 5′ direction and the 3′ direction comprising five nucleosides each. Each nucleoside in the 5′ wing segment and each nucleoside in the 3′ wing segment has a 2′-O-methoxyethyl modification. The internucleoside linkages throughout each gapmer are phosphorothioate linkages. All cytosine residues throughout each gapmer are 5-methylcytosines. “Start site” indicates the 5′-most nucleoside to which the gapmer is targeted in the human gene sequence. “Stop site” indicates the 3′-most nucleoside to which the gapmer is targeted in the human gene sequence.
Cultured HepaRG™ cells at a density of 20,000 cells per well were transfected using electroporation with 3,000 nM antisense oligonucleotide. After a treatment period of approximately 24 hours, RNA was isolated from the cells and PKK mRNA levels were measured by quantitative real-time PCR. Human primer probe set RTS3454 (forward sequence […], designated herein as SEQ ID NO: 20; reverse sequence […], designated herein as SEQ ID NO: 21; probe sequence […], designated herein as SEQ ID NO: 22) was used to measure mRNA levels. PKK mRNA levels were adjusted according to total RNA content, as measured by RIBOGREEN®. The antisense oligonucleotides were tested in a series of experiments that had similar culture conditions. Results are presented as percent inhibition of PKK, relative to untreated control cells.

[1] = Table 4, HepaRG cells, electroporation with 3,000 nM antisense oligonucleotide, approx. 24 hours, PKK mRNA by RT-PCR (RTS3454)
[2] = Table 2, PKK mRNA, HepaRG cells, 3,000 nM, electroporation, ~24 h
[3] = Table 1, PKK mRNA, HepaRG cells, 3,000 nM, electroporation, ~24 h
[4] = Table 3, HepaRG cells, electroporation with 3,000 nM antisense oligonucleotide, approx. 24 hours, PKK mRNA by RT-PCR (RTS3454)

Substance: 531226 (eG*eA*e[5mC]*eA*eG*dT*dA*dG*dA*dG*dA*d[5mC]*dT*dG*dG*eG*eA*eA*eG*eG; antisense) [compound 531226]
- % inhibition [1]: 12%

Substance: 531168 (antisense eA*e[5mC]*e[5mC]*e[5mC]*e[5mC]*dA*dA*d[5mC]*dA*dG*dA*d[5mC]*dA*dG*d[5mC]*e[5mC]*e[5mC]*eA*e[5mC]*e[5mC]) [compound 531168]
- % inhibition [1]: 55%

Substance: 531188 (eG*eT*eT*eA*eA*dA*dA*d[5mC]*dA*dA*d[5mC]*dT*dA*dG*dA*eA*eG*e[5mC]*e[5mC]*eA; antisense) [compound 531188]
- % inhibition [1]: 67%

Substance: 531072 (eG*e[5mC]*eT*e[5mC]*eA*dG*dA*dA*dT*dT*dT*dG*dA*d[5mC]*dT*eT*eG*eA*eA*e[5mC]; antisense) [compound 531072]
- % inhibition [2]: 64%

Substance: 531070 (e[5mC]*eT*eG*eT*eG*dT*dT*dT*dT*d[5mC]*dT*d[5mC]*dT*dA*dA*eA*eA*eT*e[5mC]*e[5mC]; antisense) [compound 531070]
- % inhibition [2]: 68%

Substance: 531057 (antisense e[5mC]*eA*eT*e[5mC]*eT*dT*dT*dT*d[5mC]*d[5mC]*d[5mC]*d[5mC]*d[5mC]*dT*dT*e[5mC]*eT*eT*eT*eA) [compound 531057]
- % inhibition [2]: 48%

Substance: 531225 (eA*e[5mC]*eA*e[5mC]*eT*dT*dG*dT*dA*d[5mC]*d[5mC]*d[5mC]*d[5mC]*dA*dT*eA*e[5mC]*eA*eT*e[5mC]; antisense) [compound 531225]
- % inhibition [1]: 45%

Substance: 530952 (antisense e[5mC]*eT*eG*eA*eA*dT*dA*dG*d[5mC]*dA*dA*dA*d[5mC]*dA*d[5mC]*e[5mC]*eT*eT*eG*eG) [compound 530952]
- % inhibition [3]: 38%

Substance: 531013 (e[5mC]*e[5mC]*eA*eG*eG*dG*d[5mC]*d[5mC]*dA*d[5mC]*dT*d[5mC]*dT*d[5mC]*d[5mC]*e[5mC]*e[5mC]*eA*eA*eG; antisense) [compound 531013]
- % inhibition [2]: 56%

Substance: 530950 (antisense eA*e[5mC]*e[5mC]*eT*eT*dG*dG*dG*dT*dG*dG*dA*dA*dT*dG*eT*eG*e[5mC]*eA*e[5mC]) [compound 530950]
- % inhibition [3]: 47%

Substance: 531029 (antisense eA*eG*eT*eG*eT*dA*dA*dT*dT*d[5mC]*dA*dA*dA*dG*dG*eA*eG*e[5mC]*e[5mC]*eT) [compound 531029]
- % inhibition [2]: 59%

Substance: 531034 (antisense e[5mC]*eA*eT*eA*eT*dT*dG*dG*dT*dT*dT*dT*dT*dG*dG*eA*eA*eT*eT*e[5mC]) [compound 531034]
- % inhibition [2]: 36%

Substance: 531154 (antisense eA*eT*eG*eA*eA*dG*dT*dA*dA*dG*dA*dT*dG*d[5mC]*dT*eT*eA*eA*eA*eA) [compound 531154]
- % inhibition [4]: 16%

Substance: 531009 (eT*eT*eT*eG*eT*dT*d[5mC]*d[5mC]*dT*d[5mC]*d[5mC]*dA*dA*d[5mC]*dA*eA*eT*eG*e[5mC]*eG; antisense) [compound 531009]
- % inhibition [2]: 65%

Substance: 531041 (antisense eA*eA*eA*eG*eG*dA*dA*dT*dA*dT*dT*dT*dA*d[5mC]*d[5mC]*eT*eT*eT*eT*eG) [compound 531041]
- % inhibition [2]: 68%

Substance: 531132 (antisense eA*eG*eT*eG*eA*dG*dG*dT*dT*dA*d[5mC]*dT*d[5mC]*dA*d[5mC]*e[5mC]*eA*eG*eA*eG) [compound 531132]
- % inhibition [4]: 0%

Substance: 531067 (eT*eA*e[5mC]*eT*e[5mC]*dA*dG*d[5mC]*dG*dA*d[5mC]*dT*dT*dT*dG*eG*eT*eG*eT*eA; antisense) [compound 531067]
- % inhibition [2]: 31%

Substance: 531118 (antisense eG*e[5mC]*e[5mC]*eT*eA*dA*dA*dT*dG*dT*dA*dA*dG*dA*dG*e[5mC]*eT*eA*eA*eA) [compound 531118]
- % inhibition [4]: 26%

Substance: 531038 (antisense e[5mC]*eA*eA*e[5mC]*eA*dG*dT*dT*dG*dG*dT*dA*dT*dA*dA*eA*eT*eT*eG*eT) [compound 531038]
- % inhibition [2]: 22%

Substance: 530995 (eA*eG*eT*e[5mC]*eT*d[5mC]*dT*dT*dG*dG*d[5mC]*dA*dA*dA*d[5mC]*eA*eT*eT*e[5mC]*eA; antisense) [compound 530995]
- % inhibition [3]: 49%

Substance: 531103 (eA*e[5mC]*eT*e[5mC]*eA*dT*dT*dG*d[5mC]*d[5mC]*dT*dT*dA*dA*d[5mC]*eT*e[5mC]*eA*eG*eG; antisense) [compound 531103]
- % inhibition [4]: 40%

Substance: 530935 (antisense eG*e[5mC]*eT*eT*eG*dA*dA*dT*dA*dA*dA*dA*dT*d[5mC]*dA*eT*eT*e[5mC]*eT*eG) [compound 530935]
- % inhibition [3]: 0%

Substance: 530946 (antisense eT*eA*e[5mC]*eA*eT*d[5mC]*d[5mC]*d[5mC]*d[5mC]*dA*d[5mC]*d[5mC]*dT*d[5mC]*dT*eG*eA*eA*eG*eA) [compound 530946]
- % inhibition [3]: 0%

Substance: 531227 (eT*eA*e[5mC]*e[5mC]*eA*dA*dT*dT*dT*d[5mC]*dT*dG*dA*dA*dA*eG*eG*eG*e[5mC]*eA; antisense) [compound 531227]
- % inhibition [1]: 72%

Substance: 531222 (eG*eG*e[5mC]*eA*eA*dG*d[5mC]*dT*dG*dT*dA*d[5mC]*dA*dA*dG*eA*eA*eA*eA*eA; antisense) [compound 531222]
- % inhibition [1]: 19%

Substance: 531112 (antisense eA*eT*eG*eT*eA*dT*dG*dA*dT*dT*d[5mC]*dT*dA*dA*dG*eA*eA*e[5mC]*eT*eT) [compound 531112]
- % inhibition [4]: 14%

Substance: 531066 (eA*eG*e[5mC]*eG*eA*d[5mC]*dT*dT*dT*dG*dG*dT*dG*dT*dA*eG*eA*e[5mC]*eA*e[5mC]; antisense) [compound 531066]
- % inhibition [2]: 67%

Substance: 530953 (antisense eG*eA*eA*eA*eA*d[5mC]*dT*dG*dA*dA*dT*dA*dG*d[5mC]*dA*eA*eA*e[5mC]*eA*e[5mC]) [compound 530953]
- % inhibition [3]: 7%

Substance: 531040 (antisense eT*e[5mC]*e[5mC]*eT*eT*d[5mC]*dG*dA*dG*dA*dA*dG*d[5mC]*d[5mC]*d[5mC]*e[5mC]*eA*eT*e[5mC]*e[5mC]) [compound 531040]
- % inhibition [2]: 27%

Substance: 531012 (eT*e[5mC]*eT*e[5mC]*e[5mC]*d[5mC]*d[5mC]*dA*dA*dG*dA*dA*dG*dA*dG*eT*eT*eT*eG*eT; antisense) [compound 531012]
- % inhibition [2]: 48%

Substance: 531217 (eG*eT*eG*eG*eA*dA*dT*dA*dA*dA*d[5mC]*d[5mC]*dA*dT*dA*eA*eT*e[5mC]*eT*eA; antisense) [compound 531217]
- % inhibition [1]: 47%

Substance: 531180 (antisense e[5mC]*e[5mC]*eT*e[5mC]*eT*dT*dA*dA*dG*dT*d[5mC]*dA*d[5mC]*d[5mC]*dA*eT*eA*eG*eA*e[5mC]) [compound 531180]
- % inhibition [1]: 45%

Substance: 531119 (antisense eT*eA*eA*eA*e[5mC]*dT*d[5mC]*dT*dT*dA*d[5mC]*dA*dT*dT*dT*eA*eT*eA*eG*eA) [compound 531119]
- % inhibition [4]: 0%

Substance: 531037 (antisense eA*eA*e[5mC]*eA*eG*dT*dT*dG*dG*dT*dA*dT*dA*dA*dA*eT*eT*eG*eT*eG) [compound 531037]
- % inhibition [2]: 35%

Substance: 531014 (eA*eG*e[5mC]*eT*eT*d[5mC]*dA*d[5mC]*d[5mC]*dT*dG*d[5mC]*dA*dG*dG*e[5mC]*eT*e[5mC]*eA*e[5mC]; antisense) [compound 531014]
- % inhibition [2]: 0%

Substance: 531170 (antisense eG*e[5mC]*e[5mC]*eT*eG*dG*d[5mC]*d[5mC]*d[5mC]*d[5mC]*d[5mC]*dA*dA*dG*dA*e[5mC]*eT*e[5mC]*eT*eA) [compound 531170]
- % inhibition [1]: 54%

Substance: 531215 (eT*eA*eG*eA*eG*dA*dT*dT*dT*dT*dA*dT*dG*dT*dA*e[5mC]*eT*eT*eG*eG; antisense) [compound 531215]
- % inhibition [1]: 63%

Substance: 531144 (antisense eT*eG*eA*eA*eG*dA*dT*dT*d[5mC]*dT*dA*dT*dT*dT*dA*eA*e[5mC]*eA*eA*eA) [compound 531144]
- % inhibition [4]: 0%

Substance: 531105 (e[5mC]*eT*e[5mC]*e[5mC]*eT*d[5mC]*d[5mC]*d[5mC]*d[5mC]*dA*dG*dG*d[5mC]*dT*dG*e[5mC]*eT*e[5mC]*e[5mC]*eT; antisense) [compound 531105]
- % inhibition [4]: 16%

Substance: 531149 (antisense eA*eG*eA*eG*eG*dT*dA*dA*dA*dG*d[5mC]*dA*dA*d[5mC]*dT*eT*eG*e[5mC]*e[5mC]*e[5mC]) [compound 531149]
- % inhibition [4]: 45%

Substance: 531211 (eT*eT*eG*eA*eT*dG*dT*d[5mC]*dA*dG*d[5mC]*dA*d[5mC]*dT*dG*eT*eT*eG*eA*e[5mC]; antisense) [compound 531211]
- % inhibition [1]: 77%

Substance: 530957 (antisense eG*eG*e[5mC]*eA*eA*dG*d[5mC]*dA*d[5mC]*dT*dT*dA*dT*dT*dT*eG*eA*eT*eG*eA) [compound 530957]
- % inhibition [3]: 56%
